In brackets after ≈: the same amount, converted by molar mass.

The subject of one data set is NCI-H69. Description: Antiproliferative activity against human NCI-H69 cells assessed as inhibition of cell growth incubated for 72 hrs by CCK8 assay. Particulars: NCI-H69, 72 h. In kind it is functional, cell-based.
Data set [1] addresses T1, Protein cereblon/Cyclin-dependent kinase 9 (Homo sapiens, UniProt P50750+Q96SW2). Description: PROTAC activity at CRBN/CDK9 in human NCI-H69 cells assessed as induction of CDK9 degradation incubated for 8 hrs by Western blot analysis. Format: cell-based.
Target sequence in this assay (P50750 whole entry): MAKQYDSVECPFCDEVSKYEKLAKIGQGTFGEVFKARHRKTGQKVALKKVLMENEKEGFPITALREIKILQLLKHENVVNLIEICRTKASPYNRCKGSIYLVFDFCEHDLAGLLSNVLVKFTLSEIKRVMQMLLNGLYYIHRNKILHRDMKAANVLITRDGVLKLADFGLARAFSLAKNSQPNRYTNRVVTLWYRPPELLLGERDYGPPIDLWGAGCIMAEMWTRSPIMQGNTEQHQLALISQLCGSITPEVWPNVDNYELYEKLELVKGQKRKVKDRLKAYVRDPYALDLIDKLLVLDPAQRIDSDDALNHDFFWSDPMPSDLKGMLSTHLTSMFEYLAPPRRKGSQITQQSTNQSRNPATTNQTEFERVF
Target sequence in this assay (Q96SW2 whole entry): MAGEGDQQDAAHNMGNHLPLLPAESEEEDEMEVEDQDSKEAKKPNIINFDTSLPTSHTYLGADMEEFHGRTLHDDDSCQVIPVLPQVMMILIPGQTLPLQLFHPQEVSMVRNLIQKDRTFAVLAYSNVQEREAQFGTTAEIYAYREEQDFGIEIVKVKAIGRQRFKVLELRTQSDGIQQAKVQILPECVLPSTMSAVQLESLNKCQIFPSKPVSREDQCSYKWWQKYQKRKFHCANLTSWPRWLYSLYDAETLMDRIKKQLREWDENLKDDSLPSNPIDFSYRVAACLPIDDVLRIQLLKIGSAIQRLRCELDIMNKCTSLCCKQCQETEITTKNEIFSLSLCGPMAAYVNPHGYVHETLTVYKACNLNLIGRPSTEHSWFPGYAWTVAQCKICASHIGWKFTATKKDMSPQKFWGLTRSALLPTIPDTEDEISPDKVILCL
The nature of data set [2]: Metabolic stability in mouse liver microsomes assessed as intrinsic clearance. Format: ADME, Microsome. Conditions: for microsomal CLint: liver microsomes, read-out: CLH.
Data set [3] is described as follows: Metabolic stability in mouse liver microsomes assessed as parent compound remaining measured after 60 mins. Conditions: read-out: Stability. Format: ADME, Microsome.
Data set [4] has as its target T1, Protein cereblon/Cyclin-dependent kinase 9. The data set is described as follows: PROTAC activity at CRBN/CDK9 in human NCI-H69 cells assessed as induction of CDK9 degradation at 10 nM by Western blot analysis relative to control. In kind it is cell-based.
Target sequence in this assay (P50750 whole entry, looked up): as the sequence (P50750 whole entry) above
Target sequence in this assay (Q96SW2 whole entry, looked up): as the sequence (Q96SW2 whole entry) above
For data set [5] the target is unchanged. The data set is described as follows: PROTAC activity at CRBN/CDK9 in human NCI-H446 cells assessed as induction of CDK9 degradation at 10 nM by Western blot analysis relative to control. In kind it is cell-based.
Target sequence in this assay (P50750 whole entry, looked up): as the sequence (P50750 whole entry) above
Target sequence in this assay (Q96SW2 whole entry, looked up): as the sequence (Q96SW2 whole entry) above
Data set [6] can be described thus: Metabolic stability in mouse liver microsomes assessed as half-life. In kind it is ADME, Microsome. Particulars: for half-life: liver microsomes.
A further data set has as its system NCI-H446. The data set is described as follows: Antiproliferative activity against human NCI-H446 cells assessed as inhibition of cell growth incubated for 72 hrs by CCK8 assay. In kind it is functional, cell-based. Conditions: NCI-H446, 72 h.
Data set [7] in a line: Metabolic stability in human liver microsomes assessed as parent compound remaining measured after 60 mins. In kind it is ADME, Microsome. Conditions: read-out: Stability.
Data set [8] in a line: Metabolic stability in human liver microsomes assessed as half-life. Format: ADME, Microsome. Conditions: for half-life: liver microsomes.
The nature of data set [9]: Metabolic stability in human liver microsomes assessed as intrinsic clearance. Format: ADME, Microsome. Particulars: for microsomal CLint: liver microsomes, read-out: CLH.
The nature of data set [10]: Apparent permeability across basolateral to apical side in human Caco-2 cells at 2 uM measured after 60 mins by HPLC analysis. Format: ADME, cell-based.
Data set [11] in a line: Apparent permeability across apical to basolateral side in human Caco-2 cells at 2 uM measured after 60 mins by HPLC analysis. Format: ADME, cell-based.
Data set [12] is described as follows: Efflux ratio of apparent permeability across basolateral to apical over apical to basolateral side in human Caco-2 cells at 2 uM measured after 60 mins by HPLC analysis. In kind it is ADME, cell-based.
Data set [13] is described as follows: Kinetic solubility of compound in FeSSIF buffer incubated for 2 hrs by LC-MS/MS analysis. In kind it is physicochemical. Particulars: read-out: Kinetic_solubility.

With `O=C1CCC(N2C(=O)c3ccc(N4CCN(CC5CCN(C(=O)CN6CCC(NC(=O)c7n[nH]cc7NC(=O)c7c(Cl)cccc7Cl)CC6)CC5)CC4)cc3C2=O)C(=O)N1` (centres undefined), the half-maximal inhibitory concentration (IC50) with NCI-H69 worked out at 6.46 nM; with NCI-H446, 3.7 nM. Further, the DC50 in data set [1] stood at 4.5 nM. In addition, the microsomal CLint was determined as 16.4 µL/min/mg in data set [2] and 225 µL/min/mg in [9]. Besides, the remaining at 1 h was found to be 61.2% in [3] and 3.2% in [7]. Also, the Activity in data set [4] was 88.4%; in [5], 78.2%. Also, the half-life in data set [6] came out at 84.5 min; in data set [8], 6.17 min.
On to `Cc1ncc2n1-c1ccc(Cl)cc1C(c1ccccc1F)=NC2` [MIDAZOLAM], for which the results for the CLH in data set [2] (microsomes) and in [9] (microsomes) were 1270 µL/min/mg and 1200 µL/min/mg, respectively. The t1/2 was found to be 2.72 min in [6] (microsomes) and 2.9 min in data set [8] (microsomes).
`CC(C)NCC(O)COc1cccc2ccccc12` (centres undefined) [PROPRANOLOL]: the apparent permeability from basolateral to apical (Papp B→A) at 1 h, 2 µM in [10] worked out at 15.4 ×10⁻⁶ cm/s. Besides, the apical-to-basolateral permeability (Papp A→B) at 1 h, 2 µM in data set [11] was determined as 9.64 ×10⁻⁶ cm/s. Besides, the efflux ratio at 1 h, 2 µM in [12] was 1.6.
Turning to `O=C(O)Cc1ccccc1Nc1c(Cl)cccc1Cl` [DICLOFENAC], the solubility kinetic at 2 h in data set [13] worked out at 316 µM (≈ 93.6 µg/mL).
On to `O=C1CCC(Nc2ccc(N3CCN(CC4CCN(CC(=O)N5CCC(NC(=O)c6n[nH]cc6NC(=O)c6c(Cl)cccc6Cl)CC5)CC4)CC3)cc2)C(=O)N1` (centres undefined), for which the values for the half-inhibitory concentration (IC50) in the data set with NCI-H69 and with NCI-H446 were 11 nM and 35.3 nM, respectively. Also, in data set [1], the DC50 was 5.67 nM. Also, the microsomal CLint in data set [2] worked out at 10.2 µL/min/mg; in [9], 26 µL/min/mg. Moreover, the remaining at 1 h in data set [3] came out at 72%; in [7], 64.7%. The Activity in [4] was found to be 88.9%; in [5] it was 74.1%. Further, the half-life in data set [6] worked out at 136 min; in [8], 58.8 min.
`O=C1CCC(N2C(=O)c3ccc(N4CCN(CC(=O)N5CCC(CN6CCC(NC(=O)c7n[nH]cc7NC(=O)c7c(Cl)cccc7Cl)CC6)CC5)CC4)cc3C2=O)C(=O)N1` (centres undefined): the half-maximal inhibitory concentration (IC50) in the data set on NCI-H69 was 4.82 nM; in the data set on NCI-H446 it was 2.01 nM. Further, the DC50 in data set [1] came out at 8.97 nM. The microsomal CLint in data set [2] turned out to be 16.2 µL/min/mg; in [9], 292 µL/min/mg. Besides, the remaining at 1 h in data set [3] amounted to 61.1%; in data set [7], 1.2%. The Activity was determined as 86.1% in data set [4] and 81.3% in data set [5]. The half-life was 85.6 min in data set [6] and 4.75 min in [8].
Turning to `CN1C(=O)CCC(Nc2cccc(N3CCN(CC4CCN(CC(=O)N5CCC(NC(=O)c6n[nH]cc6NC(=O)c6c(Cl)cccc6Cl)CC5)CC4)CC3)c2)C1=O` (centres undefined), the 50% inhibitory concentration (IC50) in the data set with NCI-H69 came to 501 nM; in the data set with NCI-H446, 592 nM. Besides, the Activity in [4] is 12.3%; in data set [5], 3.15%.
Turning to `Cl.O=C1CCC(Nc2cccc(N3CCN(CC4CCN(CC(=O)N5CCC(NC(=O)c6n[nH]cc6NC(=O)c6c(Cl)cccc6Cl)CC5)CC4)CC3)c2)C(=O)N1` (centres undefined), the solubility kinetic at 2 h in data set [13] is 290 µM.
With `O=C1CCC(N2C(=O)c3cccc(NCCCCCN4CCC(NC(=O)c5n[nH]cc5NC(=O)c5c(Cl)cccc5Cl)CC4)c3C2=O)C(=O)N1` (centres undefined), the IC50 with NCI-H69 turned out to be 217 nM; in the data set with NCI-H446, 136 nM. Besides, the results for the Activity in data set [4] and in data set [5] were 8.01% and 12.8%, respectively.
The like results for `O=C(CNc1cccc2c1C(=O)N(C1CCC(=O)NC1=O)C2=O)NCCCCCCCCCCC(=O)N1CCC(NC(=O)c2n[nH]cc2NC(=O)c2c(Cl)cccc2Cl)CC1` (centres undefined) were, in that order, 161 nM, 148 nM, 21.8% and 27.9%.

For the origin of these results see ChEMBL document CHEMBL6121063, “Identification of a Potent and Selective CDK9 Degrader as a Targeted Therapeutic Option for the Treatment of Small-Cell Lung Cancer” (J Med Chem, 2025).
